Numbered stars: 1 amine (or outer) side, 2 acyl side, 3 side chain; on linkers, the order of the positions; unused ones are H or OH. Square brackets hold non-standard residues; d marks the D form. Side chains are listed from the residue outwards. Peptide text beside a SMILES is read from it. * marks the point of attachment. Decanoyl(10-(4-HOOC-PhO)) = O=C(O)c1ccc(OCCCCCCCCCC(=O)*)cc1; γGlu = O=C(O)[C@H](CCC(=O)[*:2])N[*:1]; C14 diacid = O=C(O)CCCCCCCCCCCCC(=O)*; AEEA = NCCOCCOCC(=O)O; Aib = CC(C)(N)C(=O)O
Tests used:
human GLP-1 receptor = molecular target: T1, human GLP-1 receptor (Homo sapiens, UniProt P43220); assay: GLP-1 receptor binding: displacement of 125I-GLP-1 (SPA) at low and high albumin; conditions: for Ratio [(IC50/nM) high HSA]/[(IC50/nM) low HSA]: 2.0% HSA vs 0.001% HSA
T1 construct: expressed in transfected cells; membranes
Method: The purpose of this experiment is to investigate the binding to the GLP-1 receptor of the GLP-1 derivatives, and how the binding is potentially influenced by the presence of albumin. This is done in an in vitro experiment as described below.
In order to test the binding of the derivatives to albumin, the assay was performed with a low concentration of albumin (0.001%—corresponding to the residual amount thereof in the tracer), as well as with a high concentration of albumin (2.0% added). A shift in the binding affinity, IC50, is an indication that the peptide in question binds to albumin, and thereby a prediction of a potential protracted pharmacokinetic profile of the peptide in question in animal models.
Species (in vitro): Hamster
Biological End Point: Receptor Binding
A stable transfected cell line and a high expressing clone were selected for screening. The cells were grown at 5% CO2 in DMEM, 10% FCS, 1% Pen/Strep (Penicillin/Streptomycin) and 1.0 mg/ml of the selection marker G418.
The cells (approx. 80% confluence) were washed twice in PBS and harvested with Versene (aqueous solution of the tetrasodium salt of ethylenediaminetetraacetic acid), following which they were separated by centrifugation at 1000 rpm for 5 min. The cells/cell pellet must be kept on ice to the extent possible in the subsequent steps. The cell pellet was homogenised with Ultrathurrax for 20-30 seconds in a suitable amount of Buffer 1 (depending on the amount of cells, but e.g. 10 ml). The homogenate was centrifuged at 20000 rpm for 15 minutes. The pellet was resuspended (homogenised) in 10 ml Buffer 2 and re-centrifuged. This step was repeated once more. The resulting pellet was resuspended in Buffer 2, and the protein concentration was determined. The membranes were stored at minus 80° C.
Buffer 1: 20 mM Na-HEPES+10 mM EDTA, pH 7.4
Buffer 2: 20 mM Na-HEPES+0.1 mM EDTA, pH 7.4
Test compounds, membranes, SPA-particles and [^125I]-GLP-1(7-36)NH2 were diluted in assay buffer. 50 ul (micro liter) HSA (“high albumin” experiment containing 2% HSA), or buffer (“low albumin” experiment containing 0.001% HSA), was added to Optiplate, and 25 ul of test compounds were added. 5-10 ug membrane protein/sample was added (50 ul) corresponding to 0.1-0.2 mg protein/ml (to be preferably optimised for each membrane preparation). SPA-particles (Wheatgerm agglutinin SPA beads, Perkin Elmer, #RPNQ0001) were added in an amount of 0.5 mg/well (50 ul). The incubation was started with [^125I]-GLP-1]-(7-36)NH2 (final concentration 0.06 nM corresponding to 49.880 DPM, 25 ul). The plates were sealed with PlateSealer and incubated for 120 minutes at 30° C. while shaking. The plates were centrifuged (1500 rpm, 10 min) and counted in Topcounter.

[1] = Estimate of oral bioavailability: gut injection in rat (caprate), exposure in plasma; type: in vivo; conditions: injection in jejunum, 1000 uM in 55 mg/ml sodium caprate, plasma concentration (pM) at 30 min divided by dosing solution concentration (μM), mean n=4
Method: The GLP-1 derivatives were tested in a concentration of 1000 uM in a solution of 55 mg/ml sodium caprate.
Male Sprague Dawley rats with a body weight upon arrival of approximately 240 g were obtained from Taconic (Denmark) and assigned to the different treatments by simple randomisation, 4 rats per group.
The GLP-1 derivatives were administered in the jejunum either in the proximal part (10 cm distal for the duodenum) or in the mid-intestine (50 cm proximal for the cecum). A PE50-catheter, 10 cm long was inserted into the jejunum, forwarded at least 1.5 cm into the jejunum, and secured before dosing by ligature around the gut and the catheter with 3/0 suture distal to tip to prevent leak or catheter displacement. Catheter was placed without syringe and needle and 2 ml saline was administered into abdomen before closing the incision with wound clips.
100 μl of the respective GLP-1 derivative was injected into the jejunal lumen through the catheter with a 1 ml syringe. Subsequently, 200 μl of air was pushed into the jejunal lumen with another syringe to “flush” the catheter. This syringe was leaved connected to the catheter to prevent flow back into the catheter.
Blood samples (200 ul) were collected at desired intervals (usually at times 0, 10, 30, 60, 120 and 240 min) into EDTA tubes from the tail vein and centrifuged 5 minutes, 10000G, at 4° C. within 20 minutes. […] 12, p. 240-247. The donor beads were coated with streptavidin, while acceptor beads were conjugated with a monoclonal antibody recognising a mid-/C-terminal epitope of the peptide. Another monoclonal antibody, specific for the N-terminus, was biotinylated. The three reactants were combined with the analyte and formed a two-sited immuno-complex. Illumination of the complex released singlet oxygen atoms from the donor beads, which were channeled into the acceptor beads and triggered chemiluminescence which was measured in an Envision plate reader. The amount of light was proportional to the concentration of the compound.
After the blood sampling the rats were sacrificed under anaesthesia and the abdomen was opened to verify correct catheter placement.
The mean (n=4) plasma concentrations (pmol/l) were determined as a function of time.

T1 sequence (P43220 24-463): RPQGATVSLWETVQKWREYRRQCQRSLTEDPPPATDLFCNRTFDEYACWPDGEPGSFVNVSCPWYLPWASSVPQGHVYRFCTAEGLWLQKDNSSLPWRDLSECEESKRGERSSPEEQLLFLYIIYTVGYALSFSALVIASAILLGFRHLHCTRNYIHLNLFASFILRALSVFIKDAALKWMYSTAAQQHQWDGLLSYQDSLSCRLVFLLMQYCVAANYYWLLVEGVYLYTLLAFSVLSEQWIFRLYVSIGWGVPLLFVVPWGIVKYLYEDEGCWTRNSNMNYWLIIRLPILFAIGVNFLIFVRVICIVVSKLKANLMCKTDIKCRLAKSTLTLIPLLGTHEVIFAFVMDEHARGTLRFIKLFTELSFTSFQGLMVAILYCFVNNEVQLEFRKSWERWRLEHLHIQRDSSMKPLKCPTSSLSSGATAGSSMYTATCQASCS

Row | Compound | IC50 (human GLP-1 receptor; high albumin, 2.0% HSA, read-out: IC50/nM (high HSA)) | Dose-corrected exposure at 30 min [1] | Ratio [(IC50/nM) high HSA]/[(IC50/nM) low HSA] (human GLP-1 receptor)
1 | CC[C@H](C)[C@H](NC(=O)[C@H](Cc1ccccc1)NC(=O)[C@H](CCCCNC(=O)COCCOCCNC(=O)COCCOCCNC(=O)CC[C@H](NC(=O)CCCCCCCCCOc1ccc(C(=O)O)cc1)C(=O)O)NC(=O)[C@H](CCCNC(=N)N)NC(=O)[C@H](C)NC(=O)[C@H](C)NC(=O)[C@H](CCC(N)=O)NC(=O)[C@H](CCC(=O)O)NC(=O)[C@H](CCC(=O)O)NC(=O)[C@H](CC(C)C)NC(=O)[C@H](Cc1ccc(O)cc1)NC(=O)[C@H](CO)NC(=O)[C@H](CO)NC(=O)[C@@H](NC(=O)[C@H](CC(=O)O)NC(=O)[C@H](CO)NC(=O)[C@@H](NC(=O)[C@H](Cc1ccccc1)NC(=O)[C@@H](NC(=O)CNC(=O)[C@H](CCC(=O)O)NC(=O)[C@H](C)NC(=O)[C@@H](N)Cc1c[nH]cn1)[C@@H](C)O)[C@@H](C)O)C(C)C)C(=O)N[C@@H](C)C(=O)N[C@@H](Cc1c[nH]c2ccccc12)C(=O)N[C@@H](CC(C)C)C(=O)N[C@H](C(=O)N[C@@H](CCCNC(=N)N)C(=O)NCC(=O)N[C@@H](CCCCNC(=O)COCCOCCNC(=O)COCCOCCNC(=O)CC[C@H](NC(=O)CCCCCCCCCOc1ccc(C(=O)O)cc1)C(=O)O)C(=O)O)C(C)C [Example 3, N^ε27-[2-[2-[2-[[2-[2-[2-[[(4S)-4-carboxy-4-[10-(4-carboxyphenoxy)decanoylamino]butanoyl]amino]ethoxy]ethoxy]acetyl]amino]ethoxy]ethoxy]acetyl], N^ε36-[2-[2-[2-[[2-[2-[2-[[(4S)-4-carboxy-4-[10-(4-carboxyphenoxy)decanoylamino]butanoyl]amino]ethoxy]ethoxy]acetyl]amino]ethoxy]ethoxy]acetyl]-[Glu^22,Arg^26,Lys^27,Arg^34,Lys^36],des-Gly37-GLP-1-(7-36)-peptide] (H-HAEGTFTSDVSSYLEEQAARK([AEEA-AEEA-γGlu-Decanoyl(10-(4-HOOC-PhO))])FIAWLVRGK([AEEA-AEEA-γGlu-Decanoyl(10-(4-HOOC-PhO))])-OH; N-terminus and C-terminus assumed) | 29 nM | 67 | –
2 | CC[C@H](C)[C@H](NC(=O)[C@H](Cc1ccccc1)NC(=O)[C@H](CCCCNC(=O)COCCOCCNC(=O)COCCOCCNC(=O)CC[C@H](NC(=O)CCCCCCCCCOc1ccc(C(=O)O)cc1)C(=O)O)NC(=O)[C@H](CCCNC(=N)N)NC(=O)[C@H](C)NC(=O)[C@H](C)NC(=O)[C@H](CCC(N)=O)NC(=O)[C@H](CCC(=O)O)NC(=O)[C@H](CCC(=O)O)NC(=O)[C@H](CCCCNC(=O)COCCOCCNC(=O)COCCOCCNC(=O)CC[C@H](NC(=O)CCCCCCCCCOc1ccc(C(=O)O)cc1)C(=O)O)NC(=O)[C@H](Cc1ccc(O)cc1)NC(=O)[C@H](CO)NC(=O)[C@H](CO)NC(=O)[C@@H](NC(=O)[C@H](CC(=O)O)NC(=O)[C@H](CO)NC(=O)[C@@H](NC(=O)[C@H](Cc1ccccc1)NC(=O)[C@@H](NC(=O)CNC(=O)[C@H](CCC(=O)O)NC(=O)C(C)(C)NC(=O)[C@@H](N)Cc1c[nH]cn1)[C@@H](C)O)[C@@H](C)O)C(C)C)C(=O)N[C@@H](CCC(=O)O)C(=O)N[C@@H](Cc1c[nH]c2ccccc12)C(=O)N[C@@H](CC(C)C)C(=O)N[C@H](C(=O)NCC(=O)O)C(C)C [Example 5, N^ε20-[2-[2-[2-[[2-[2-[2-[[(4S)-4-carboxy-4-[10-(4-carboxyphenoxy)decanoylamino]butanoyl]amino]ethoxy]ethoxy]acetyl]amino]ethoxy]ethoxy]acetyl], N^ε27-[2-[2-[2-[[2-[2-[2-[[(4S)-4-carboxy-4-[10-(4-carboxyphenoxy)decanoylamino]butanoyl]amino]ethoxy]ethoxy]acetyl]amino]ethoxy]ethoxy]acetyl]-[Aib^8,Lys^20,Glu^22,Arg^26,Lys^27,Glu^30,Gly^34]-GLP-1-(7-34)-peptide] (H-H[Aib]EGTFTSDVSSYK([AEEA-AEEA-γGlu-Decanoyl(10-(4-HOOC-PhO))])EEQAARK([AEEA-AEEA-γGlu-Decanoyl(10-(4-HOOC-PhO))])FIEWLVG-OH) | – | 124 | 79
3 | CC[C@H](C)[C@H](NC(=O)[C@H](Cc1ccccc1)NC(=O)[C@H](CCCCNC(=O)COCCOCCNC(=O)COCCOCCNC(=O)CC[C@H](NC(=O)CCCCCCCCCCCCC(=O)O)C(=O)O)NC(=O)[C@H](CCCNC(=N)N)NC(=O)[C@@H](NC(=O)[C@H](C)NC(=O)[C@H](CCC(N)=O)NC(=O)[C@H](CCCCNC(=O)COCCOCCNC(=O)COCCOCCNC(=O)CC[C@H](NC(=O)CCCCCCCCCCCCC(=O)O)C(=O)O)NC(=O)[C@H](CCC(=O)O)NC(=O)[C@H](CC(C)C)NC(=O)[C@H](Cc1ccc(O)cc1)NC(=O)[C@H](CO)NC(=O)[C@H](CO)NC(=O)[C@@H](NC(=O)[C@H](CC(=O)O)NC(=O)[C@H](CO)NC(=O)[C@@H](NC(=O)[C@H](Cc1ccccc1)NC(=O)[C@@H](NC(=O)CNC(=O)[C@H](CCC(=O)O)NC(=O)C(C)(C)NC(=O)[C@@H](N)Cc1c[nH]cn1)[C@@H](C)O)[C@@H](C)O)C(C)C)C(C)C)C(=O)N[C@@H](C)C(=O)N[C@@H](Cc1c[nH]cn1)C(=O)N[C@@H](CC(C)C)C(=O)N[C@H](C(=O)N[C@@H](CCCNC(=N)N)C(=O)NCC(=O)N[C@@H](CCCNC(=N)N)C(=O)NCC(=O)O)C(C)C [Example 7, N^ε22-[2-[2-[2-[[2-[2-[2-[[(4S)-4-carboxy-4-(13-carboxytridecanoylamino)butanoyl]amino]ethoxy]ethoxy]acetyl]amino]ethoxy]ethoxy]acetyl],N^ε27-[2-[2-[2-[[2-[2-[2-[[(4S)-4-carboxy-4-(13-carboxytridecanoylamino)butanoyl]amino]ethoxy]ethoxy]acetyl]amino]ethoxy]ethoxy]acetyl]-[Aib^8,Lys^22,Val^25,Arg^26,Lys^27,His^31,Arg^34]-GLP-1-(7-37)-peptide] (H-H[Aib]EGTFTSDVSSYLEK([AEEA-AEEA-γGlu-C14 diacid])QAVRK([AEEA-AEEA-γGlu-C14 diacid])FIAHLVRGRG-OH) | – | 99 | 174
